Assay results reported in EP2886531B1, “Aspartic acid derivatives” (Merck Patent GmbH, priority 2013, dated 2015).

How the values were obtained:
[1] = Prolonged piperidine treatment of VKDGYI peptide resin (aspartimide formation, Asp-Gly motif)
[2] = Prolonged DBU treatment of VKDNYI peptide resin (aspartimide formation); assay type: physicochemical; conditions: for D/L-Asu [%] / piperides [%]: DBU/piperidine/DMF (1:19:79), 225 minutes; for target [%]: target peptide VKDNYI, DBU/piperidine/DMF (1:19:79) over 225 minutes, 110 Fmoc removal cycles
Method: (§1) Automated peptide synthesis, piperidine treatments of the resin samples and final TFA cleavages are performed as described in the protocols of example 4. In addition, 50 mg peptide resin samples are treated with a solution of DBU/piperidine/DMF (1:19:79) over 225 minutes to investigate the aspartimide formation at harsher Fmoc deprotection conditions often used for complete Fmoc removals in aggregation prone sequences.
(§2) The resulting peptide samples are analysied and all relevant impurities identified by UPLC-MS analysis (Xevo Waters Q-TOF-1, lock mass = 556.277 (leu-enkephaline), LC-conditions: CHS 18 1,7 µm (100x2.1 mm) at 40°C; water acetonitrile gradient of 5% to 35 % B over 10 min where buffer A is 0.1 % formic acid in water and buffer B is 0.1 % formic acid in acetonitrile, flow 0.6 ml/min).
In table 3 the amounts of by-products formed after prolonged DBU treatments are summarized for all side-chain protections used in this invention. […] Since the DBU mediated Fmoc removals are much quicker than the piperidine mediated, this experiment again represents a Fmoc SPPS assembly of an 100mer after introducing the aspartic acid residue using exclusively DBU for Fmoc cleavage. Table 3: Results after 110 Fmoc removal cycles using DBU, target peptide = VKDNYI, the aspartimide (Asu) derived by-products are the aspartimide itself and the sum of piperidides

[3] = Prolonged treatment of VKDGYI peptide resin with 1 M Oxyma Pure and 20 % piperidine (aspartimide formation); assay type: physicochemical; conditions: for Asu per 10' cycle / Asu [%] / piperidides [%]: Oxyma Pure +; for Asu [%] / piperidides [%] / target [%]: 18 hours; for target [%]: Oxyma Pure +: 1 M Oxyma Pure and 20 % piperidine in dimethylformamide
Method: [drawing 14] 50 mg samples of the corresponding aspartic acid derivatives of example 4 are treated over 18 hours with a solution of 1 M Oxyma Pure and 20 % piperidine in dimethylformamide. The peptides are cleaved off the resin with 95 % TFA and analysed with HPLC as well as MS to identify all aspartimide related products (conditions see example 4). The results are summarized in table 6: Table 6: Results after 110 Fmoc removal cycles using an acidic modifier in the piperidine mediated Fmoc removal cocktails, target peptide = VKDG YI, the aspartimide derived by-products are the aspartimide itself and the sum of piperidides

[4] = Prolonged piperidine treatment of VKDNYI peptide resin (aspartimide formation, Asp-Asn motif); assay type: physicochemical; conditions: for D/L-Asu [%] / piperidides [%] / target [%]: 110 Fmoc removal cycles; for target [%]: target peptide VKDNYI
Method: as §1, §2
In table 2 the amounts of by-products formed after the prolonged exposure of the peptide resins to piperidine (110 Fmoc removal cycles) are summarized for all side-chain protections used in this invention. […] Table 2: Results after 110 Fmoc removal cycles using piperidine, target peptide = VKDNYI, the aspartimide (Asu) derived by products are the aspartimide itself and the sum of piperidides

[5] = Prolonged piperidine treatment at 60°C of VKDRYI peptide resin (aspartimide formation); assay type: physicochemical; conditions: for D/L-Asu [%] / piperidides [%]: 20% piperidine in DMF at 60°C, 200 minutes; for aspartimide by-products per cycle: piperidine at 60 degrees Celsius; for target [%]: target peptide VKDRYI, 20% piperidine in DMF at 60°C over 200 minutes, 100 Fmoc removal cycles
Method: (§3) Automated peptide synthesis, piperidine treatments of the resin samples and final TFA cleavages are performed as described in the protocols of example 4. In addition, to evaluate the advantage of the protecting groups used in this invention in heat accelerated SPPS we treat 50 mg peptide resin samples with a solution of 20% piperidine in DMF at 60°C over 200 minutes. Microwave assisted peptide synthesis conditions are often used to shorten peptide synthesis times and increase coupling reaction and Fmoc deprotection.
The application of microwave heating to SPPS is accelerating coupling and deprotection reactions leading to shorter cycle times, higher repetitive yields, and ultimately purer peptides. On the other hand, microwave energy can also lead to increased levels of aspartimide by-products. To overcome that drawback we evaluated the advantage of the side-chain protections used in this invention by exposing the peptide resins to Fmoc removal cycles at 60 degrees Celsius.
In table 5 the amounts of by-products formed after the prolonged exposure of the peptide resins to piperidine at 60 degree Celsius (100 Fmoc removal cycles) are summarized for all side-chain protections used in this invention. […] Table 5: Results after 100 Fmoc removal cycles using piperidine at 60°C, target peptide sequence = VKDRYI, the aspartimide (Asu) derived by-products are the aspartimide itself and the sum of piperidides

[6] = Prolonged piperidine treatment of VKDRYI peptide resin (aspartimide formation, Asp-Arg motif); assay type: physicochemical; conditions: for D/L-Asu [%] / piperidides [%] / target [%]: 110 Fmoc removal cycles; for target [%]: target peptide VKDRYI
Method: as §3
In table 4 the amounts of by-products formed after the prolonged exposure of the peptide resins to piperidine (110 Fmoc removal cycles) are summarized for all side-chain protections used in this invention. Table 4: Results after 110 Fmoc removal cycles using piperidine, target peptide sequence = VKDRYI, the aspartimide (Asu) derived by-products are the aspartimide itself and the sum of piperidides

[7] = VKDGYI, 20 % piperidine in dimethylformamide
[8] = VKDGYI, 20 % piperidine in dimethylformamide, 18 hours, aspartimide
[9] = VKDGYI, 20 % piperidine in dimethylformamide, 18 hours, sum of piperidides
[10] = VKDGYI, Oxyma Pure -: 20 % piperidine only, 18 hours (as Table 1)
[11] = target peptide VKDGYI, 20 % piperidine in dimethylformamide over 18 hours, 110 Fmoc removal cycles
[12] = VKDGYI, 1 M Oxyma Pure in 20 % piperidine

Asu per 10' cycle [%] [1, 7] [%]	Asu [%] [1, 8] [%]	piperidides [%] [1, 9] [%]	Asu per 2' cycle ([2]; VKDNYI, DBU)	D/L-Asu [%] ([2]; VKDNYI)	piperides [%] ([2]; VKDNYI)	target [%] [2] [%]	Asu per 10' cycle ([4]; VKDNYI, piperidine)	D/L-Asu [%] ([4]; VKDNYI, piperidine)	piperidides [%] ([4]; VKDNYI, piperidine)	target [%] ([4]; piperidine)	D/L-Asu [%] ([5]; VKDRYI)	piperidides [%] ([5]; VKDRYI)	Asu per 10' cycle ([5]; VKDRYI, piperidine at 60°C)	target [%] [5] [%]	Asu per 10' cycle ([6]; VKDRYI)	Half-life in cycles ([6]; VKDRYI) [cycles]	D/L-Asu [%] ([6]; VKDRYI)	piperidides [%] ([6]; VKDRYI)	target [%] [6] [%]	Compound	also measured
0.4	4.1	31.5	0.5	5.6	37.3	57.1	0.2	3.0	16.0	81.0	7.8	6.8	0.2	85.4	0.1	539	3.90	9.4	86.7	CCC(CC)(CC)OC(=O)C[C@H](NC(=O)OCC1c2ccccc2-c2ccccc21)C(=O)O [Epe, (2S)-N-((9H-fluoren-9-ylmethyloxy)carbonyl)aspartic acid-4-((3-ethyl)pent-3-yl) ester]	Asu [%] ([1]; VKDGYI, Oxyma Pure -): 4.1%; Asu per 10' cycle ([1]; VKDGYI, Oxyma Pure -): 0.4; piperidides [%] ([1]; VKDGYI, Oxyma Pure -): 31.5%; target [%] [1, 10]: 64.4%; minimizes the aspartimide formation by a factor compared to Mpe ([1]; VKDGYI, relative to Mpe protection): two; target [%] [1, 11]: 64.4%; Half-life in cycles [2]: 138 cycles; Asu per 10' cycle ([3]; VKDGYI): 0.14; Asu [%] ([3]; VKDGYI): 2.6%; piperidides [%] ([3]; VKDGYI): 11.7%; target [%] ([3]; VKDGYI): 85.7%; Half-life in cycles [4]: 365 cycles; Half-life in cycles [5]: 439 cycles; aspartimide by-products per cycle ([5]; VKDRYI): 0.2%
0.2	2.9	16.5	0.4	3.3	25.7	71.0	0.09	1.0	8.2	90.8	7.1	5.1	0.1	87.8	0.08	845	3.2	5.5	91.3	CCCC(CCC)(CCC)OC(=O)C[C@H](NC(=O)OCC1c2ccccc2-c2ccccc21)C(=O)O [Php, (2S)-N-((9H-fluoren-9-ylmethyloxy)carbonyl)aspartic acid-4-(4-(n-propyl)hept-4-yl) ester]	half-life of the target peptide increased, in respect of Mpe ([1]; VKDGYI, Asp-Gly sequence, relative to Mpe protection): 4 fold; half-life of the target peptide increased, instead of tBu ([1]; VKDGYI, Asp-Gly sequence, relative to tBu protection): more than 10 fold; Asu [%] ([1]; VKDGYI, Oxyma Pure -): 2.9%; Asu per 10' cycle ([1]; VKDGYI, Oxyma Pure -): 0.2; piperidides [%] ([1]; VKDGYI, Oxyma Pure -): 16.5%; target [%] [1, 10]: 80.6%; target [%] [1, 11]: 80.6%; Half-life in cycles [2]: 192 cycles; aspartimide side reaction ([3]; Asp-Gly sequence, Fmoc removal solution of 1 M Oxyma Pure in piperidine/DMF 1:4): nearly inhibits the apartimide side reaction; aspartimide derived by-products per Fmoc removal [3, 12]: 0.05%; half-life [3, 12]: greater than 1500 cycles; Asu per 10' cycle ([3]; VKDGYI): 0.04; Asu [%] ([3]; VKDGYI): 1.3%; piperidides [%] ([3]; VKDGYI): 3.3%; target [%] ([3]; VKDGYI): 95.4%; Half-life in cycles [4]: 800 cycles; Half-life in cycles [5]: 532 cycles
0.8	6.7	51.0	1.5	7.5	73.7	18.8	0.5	4.3	37.5	58.2	16.9	19.6	0.5	63.5	0.4	173	6.9	28.9	64.2	CCC(C)(CC)OC(=O)C[C@H](NC(=O)OCC1c2ccccc2-c2ccccc21)C(=O)O [Mpe, Fmoc-Asp(OMpe)-OH, reference compound]	Half-life in 10' cycles [1, 7]: 90 10' cycles; Asu [%] ([1]; VKDGYI, Oxyma Pure -): 6.7%; Asu per 10' cycle ([1]; VKDGYI, Oxyma Pure -): 0.8; piperidides [%] ([1]; VKDGYI, Oxyma Pure -): 51.0%; target [%] [1, 10]: 42.3%; target [%] [1, 11]: 42.3%; Half-life in cycles ([2]; VKDNYI, DBU, 2' cycles): 46 cycles; Asu per 10' cycle ([3]; VKDGYI): 0.16; Asu [%] ([3]; VKDGYI): 3.8%; piperidides [%] ([3]; VKDGYI): 12.0%; target [%] ([3]; VKDGYI): 84.2%; Half-life in cycles ([4]; VKDNYI, piperidine): 140 cycles; times more aspartimide per Fmoc removal cycle ([4]; VKDNYI, piperidine, in comparison to Bno): ten; aspartimide by-products per cycle ([5]; VKDRYI): 0.5%; Half-life in cycles ([5]; VKDRYI, piperidine at 60°C): 153 cycles; times more aspartimide per Fmoc removal cycle ([6]; VKDRYI, in comparison to Bno): approximately seven; Half-life in cycles ([6]; VKDRYI, listed as Fmoc-Asp(OMpe)-OH): approx. 170 cycles
–	–	–	0.3	3.5	22.0	74.5	0.04	0.9	3.6	95.5	4.9	4.3	0.1	90.8	0.06	1202	2.6	3.6	93.8	CCCCC(CCCC)(CCCC)OC(=O)C[C@H](NC(=O)OCC1c2ccccc2-c2ccccc21)C(=O)O [Bno]	aspartimide formation per 2 minute Fmoc removal cycle ([2]; VKDNYI, DBU): less than 0.3%; aspartimide side reaction during the Fmoc removals, rate per cycle ([4]; VKDNYI, piperidine): 0.05%; Half-life in cycles [5]: 718 cycles; aspartimide side reaction during the Fmoc removals per cycle ([6]; VKDRYI): less than 0.06%
